This note sets out measurements from ChEMBL document CHEMBL1201862, “PubChem BioAssay data set” (2004).

Experiment in all cases: NCI tumour cell line growth inhibition, 48 h
Test [1] concerns T47D.
Test [2] relates to IGROV-1.
Test [3] concerns OVCAR-3.
The test system of test [4] is SNB-75.
Test [5] deals with CCRF-CEM.
Test [6] relates to NCI/ADR-RES.
Test [7] relates to SW-620.
Test [8] deals with HCT-116.
The subject of test [9] is OVCAR-8.
For test [10], the system named is LOX IMVI.
The subject of test [11] is A498.
Test [12] deals with U-251.
Test [13] concerns Hs-578T.
Test [14] concerns BT-549.
Test [15] deals with COLO 205.
The test system of test [16] is HOP-92.
Test [17] relates to RPMI-8226.
Test [18] deals with SF-268.
Test [19] has as its system K562.

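Tested at 5 concentrations; 48 h exposure; 96-well plates; endpoints linearly interpolated, else capped at highest concentration. The concentration for 50% growth inhibition is given as GI50.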 Activity calls are given as the source filed them. No stated cut-off is given here; in the data, active = GI50 up to about 1.1 µM and inactive = higher. Peptide text beside a SMILES is read from it. * marks the point of attachment. Boc = CC(C)(C)OC(=O)*

For `CSc1ccc(/C=C2\N=C(c3ccccc3)N(c3nc4ccc(Sc5ccccc5)cc4[nH]3)C2=O)cc1`, the GI50 was 20.5 µM (inactive) in test [1]; 36.5 µM (inactive) in [2]; 2.01 µM (inactive) in test [3]; 18.1 µM (inactive) in test [4]; 27.4 µM (inactive) in [5]; 19.4 µM (inactive) in test [6]. Besides, the GI50 is 17.9 µM (inactive) in test [7]; 14.7 µM (inactive) in test [8]; 28.2 µM (inactive) in test [9]; 17.6 µM (inactive) in test [10]; 18.2 µM (inactive) in test [11]; 16.7 µM (inactive) in [12]. Also, the GI50 was 18.6 µM (inactive) in [13]; 18.3 µM (inactive) in test [14]; 13.9 µM (inactive) in test [15]; 33.6 µM (inactive) in [16]; 20.2 µM (inactive) in test [17]; 27.6 µM (inactive) in test [18]. In addition, the GI50 in test [19] was 14 µM (inactive).

Regarding `CS(=O)(=O)OCCN(CCOS(C)(=O)=O)c1ccc(/C=N/c2cccc(Cl)c2)cc1`, the GI50 in test [1] was 18.2 µM (inactive); in test [2], 15.5 µM (inactive); in [3] it was 12.1 µM (inactive); in test [4], 2.11 µM (inactive); in test [5], 1.82 µM (inactive); in [6], 3.61 µM (inactive). Also, the GI50 in test [7] is 12.8 µM (inactive); in test [8], 64.9 µM (inactive); in [9], 10 µM (inactive); in test [10] it was 1.13 µM (inactive); in [11], 5.38 µM (inactive); in [12], 3.72 µM (inactive). Further, the GI50 in test [13] is 26 µM (inactive); in test [14], 9.98 µM (inactive); in test [15], 0.811 µM (active); in test [16], 23.8 µM (inactive); in test [17] it was 3.85 µM (inactive); in [18], 7.55 µM (inactive). In addition, the GI50 in [19] was 23.5 µM (inactive).

On to `C#CC1(O)CCC2[C@@H]3CCc4cc(Oc5nc(F)nc(-c6c(C)c(C(=O)OCC)n7ccccc67)n5)ccc4C3CC[C@@]21C` (stereo not given in full), for which the GI50 in [1] is > 100 µM (inactive); in [2] it was > 100 µM (inactive); in test [3], > 100 µM (inactive); in [4], > 100 µM (inactive); in test [5] it was 61 µM (inactive); in test [6], > 100 µM (inactive). Besides, the GI50 in [7], in test [8], in test [9], in test [10], in test [11] and in test [12] was > 100 µM (inactive) each time. The GI50 in test [13], in [14], in [15], in test [16], in test [17] and in test [18] was > 100 µM (inactive) throughout. The GI50 in test [19] is 29.6 µM (inactive).

On to `c1ccc2c(CC3NCCN3)cccc2c1`, for which the GI50 in test [1], in [2], in [3], in test [4], in [5] and in test [6] was > 100 µM (inactive) in each case. Moreover, the GI50 in test [7], in test [8], in [9], in [10], in test [11] and in [12] was > 100 µM (inactive) each time. Moreover, the GI50 in test [13] was > 100 µM (inactive); in test [14] it was > 100 µM (inactive); in [15], > 100 µM (inactive); in [16] it was 46 µM (inactive); in test [17], > 100 µM (inactive); in test [18], > 100 µM (inactive). Besides, the GI50 in test [19] was > 100 µM (inactive).

Consider `COC(=O)C(Cc1ccccc1)NC(=O)C(CS)NC(=O)OC(C)(C)C` (stereo not drawn) (Boc-Cys-Phe-OMe; configuration not given here), for which the GI50 is > 100 µM (inactive) in [1]; > 100 µM (inactive) in [2]; 88.1 µM (inactive) in [3]; > 100 µM (inactive) in test [4]; 21.8 µM (inactive) in [5]; > 100 µM (inactive) in [6]. The GI50 was 53.7 µM (inactive) in [7]; 41.9 µM (inactive) in test [8]; > 100 µM (inactive) in test [9]; 69.2 µM (inactive) in [10]; > 100 µM (inactive) in test [11]; > 100 µM (inactive) in test [12]. For the same compound, the GI50 in test [13], in test [14], in [15], in test [16], in test [17] and in test [18] was > 100 µM (inactive) each time. For the same compound, the GI50 in [19] was 38.2 µM (inactive).

For the compound `COc1cccc(-c2c(C#N)c(N)nc3c2CCS(=O)(=O)c2ccc(C)cc2-3)c1`, the GI50 is > 100 µM (inactive) in [1]; > 100 µM (inactive) in [2]; > 100 µM (inactive) in test [3]; 33 µM (inactive) in test [4]; > 100 µM (inactive) in test [5]; > 100 µM (inactive) in test [6]. The GI50 in [7] was > 100 µM (inactive); in test [8], > 100 µM (inactive); in test [9] it was 43.8 µM (inactive); in test [10] it was > 100 µM (inactive); in [11], > 100 µM (inactive); in [12], > 100 µM (inactive). Also, the GI50 in [13], in test [14], in test [15], in test [16], in test [17] and in test [18] was > 100 µM (inactive) throughout. Moreover, the GI50 in test [19] is > 100 µM (inactive).

`COCN1CCN=c2c1c1c3c(c4ccccc4n23)CCC1`: the GI50 in [1], in [2], in [3], in test [4], in test [5] and in test [6] was > 100 µM (inactive) throughout. Moreover, the GI50 in test [7], in test [8], in test [9], in [10], in [11] and in test [12] was > 100 µM (inactive) in each case. Also, the GI50 in test [13], in [14], in test [15], in [16], in test [17] and in test [18] was > 100 µM (inactive) throughout. For the same compound, the GI50 in [19] was > 100 µM (inactive).

For the compound `COC(=O)/C=C\C(C#N)(C#N)/N=C/c1ccsc1`, the GI50 in test [1] was 1.86 µM (inactive); in test [2], 9.08 µM (inactive); in test [3], 1.86 µM (inactive); in test [4], 15.7 µM (inactive); in test [5], 0.216 µM (active); in test [6] it was 2.54 µM (inactive). For the same compound, the GI50 was 1.28 µM (inactive) in [7]; 1.75 µM (inactive) in [8]; 4.19 µM (inactive) in test [9]; 2.24 µM (inactive) in [10]; 18.8 µM (inactive) in [11]; 15.8 µM (inactive) in test [12]. For the same compound, the GI50 in [13] was 10.6 µM (inactive); in test [14] it was 1.84 µM (inactive); in test [15] it was 1.37 µM (inactive); in test [16], 1.74 µM (inactive); in test [17], 1.25 µM (inactive); in test [18] it was 15.2 µM (inactive). Further, the GI50 in test [19] is 0.525 µM (active).

As to `O=C1CCC2C(O)c3cc4c(cc3C(c3ccc5c(c3)OCO5)N12)OCO4` (stereo not given), the GI50 in test [1] is > 100 µM (inactive); in [2] it was > 100 µM (inactive); in test [3], > 100 µM (inactive); in [4], 16.3 µM (inactive); in [5], > 100 µM (inactive); in test [6], 94 µM (inactive). Further, the GI50 in [7] is > 100 µM (inactive); in test [8], > 100 µM (inactive); in test [9] it was 35.6 µM (inactive); in test [10], > 100 µM (inactive); in [11] it was > 100 µM (inactive); in [12], 26.1 µM (inactive). Also, the GI50 in [13] was 24.4 µM (inactive); in [14], 47.6 µM (inactive); in test [15], > 100 µM (inactive); in test [16], 35.2 µM (inactive); in [17], > 100 µM (inactive); in [18], 19.2 µM (inactive). Besides, the GI50 in test [19] is > 100 µM (inactive).

Regarding `CC(=O)O[C@@H]1CC[C@@]2(C)C(CC[C@H]3[C@@H]4CC[C@H]([C@H](C)CCc5nc6cc(C)ccc6[nH]5)[C@@]4(C)CC[C@@H]32)C1` (stereo not given in full), the GI50 in test [1] was 0.0352 µM (active); in test [2], 4.34 µM (inactive); in [3], 20.9 µM (inactive); in test [4] it was 6.04 µM (inactive); in test [5] it was 3.44 µM (inactive); in [6], 97.3 µM (inactive). In addition, the GI50 in test [7] is > 100 µM (inactive); in [8], > 100 µM (inactive); in [9], 11 µM (inactive); in test [10] it was 1.66 µM (inactive); in [11], 92.7 µM (inactive); in [12] it was 18.2 µM (inactive). Also, the GI50 was 13.9 µM (inactive) in test [13]; 29.8 µM (inactive) in test [14]; 24.4 µM (inactive) in test [15]; 69.5 µM (inactive) in test [16]; 8.89 µM (inactive) in test [17]; > 100 µM (inactive) in test [18]. Also, in test [19], the GI50 is 12.6 µM (inactive).
